Measured values published in US12692221B2 (priority 2024, dated 2026).
In brackets after ≈: the same amount, converted by molar mass. Entries after “also recorded” stand apart in the source; their conditions may differ.

Legend:
5-HT2B [1] = target: T1, 5-HT2B (Homo sapiens, UniProt P41595); test: IP-One HTRF IP-1 accumulation functional assay, 5-HT2B/HEK293; format: cell-based; set-up: host or cells: HEK293
Description: Methods (5-HT2B IP-One Functional Activity Assays): Intracellular accumulation of IP-1 was measured using an IP-One HTRF) assay kit (Cat. #62IPAPEJ, Cisbio) at WuXi AppTec Co. Ltd. (Hong Kong) Discovery Biology Unit according to their standard protocols. Briefly, 5-HT2B/HEK293 were plated in a 384-well plate and incubated at 37° C. and 5% CO2 overnight. The reference compounds and screening compounds were 3.16-fold serially diluted in 100% DMSO for 10 points using Bravo. 70 nL of compounds were added to the cell plate using Echo555. Incubated for 60 minutes at 37° C. Added 3 μL of IP-1 d2 Reagent working solution and 3 μL of IP-1 Tb Cryptate Antibody working solution to all wells. The plates were incubated for 1 hour at room temperature and read on for fluorescence at 620 nm and 665 nm on an EnVision Multimode Plate Reader (PerkinElmer). The ratio of the acceptor and donor emission signals (665/620) were calculated for each individual well and substituted into the standard curve to obtain the log concentration of IP level. After converting to the antilog base IP-1, the average background control signal was subtracted from each well and values were normalized to the maximal response of 5-HT at 3 μM (100%). % MAX was calculated by taking the average normalized maximal response at the highest concentration tested. Data were analyzed using the four-parameter nonlinear regression curve-fitting function in GraphPad Prism 5 (GraphPad Software, San Diego, CA) to generate potency (EC50) values. Parameter constraint “Top=100” was used in the analysis of 5-HT2B IP-1. Represented plots show normalized IP-1 values versus compound concentrations; the corresponding numerical data are parameter estimates for the concentration-response curve using the 4-parameter nonlinear regression curve-fitting function in GraphPad Prism 10. “Top=100” parameter constraint was not enabled for the represented plot analysis.

5-HT2B [2] = target: T1, 5-HT2B; test: Calcium flux agonist assay, 293T cells; format: cell-based; set-up: expressed in transfected cells; host or cells: Human Embryonic Kidney (293T) cells, transient; conditions: for Emax: HEK-293T, 5-HT2B, normalized to maximum 5-HT response; for Emax / 5-HT2B receptor activation: calcium flux; for 5-HT2B receptor activation: in words
5-HT2A [3] = target: T2, 5-HT2A (Homo sapiens, UniProt P28223); test: Calcium flux agonist assay, 293T cells; format: cell-based; set-up: expressed in transfected cells; host or cells: Human Embryonic Kidney (293T) cells, transient; conditions: for Emax: HEK-293T, calcium flux, 5-HT2A, normalized to maximum 5-HT response
T2 sequence (P28223 whole entry, looked up): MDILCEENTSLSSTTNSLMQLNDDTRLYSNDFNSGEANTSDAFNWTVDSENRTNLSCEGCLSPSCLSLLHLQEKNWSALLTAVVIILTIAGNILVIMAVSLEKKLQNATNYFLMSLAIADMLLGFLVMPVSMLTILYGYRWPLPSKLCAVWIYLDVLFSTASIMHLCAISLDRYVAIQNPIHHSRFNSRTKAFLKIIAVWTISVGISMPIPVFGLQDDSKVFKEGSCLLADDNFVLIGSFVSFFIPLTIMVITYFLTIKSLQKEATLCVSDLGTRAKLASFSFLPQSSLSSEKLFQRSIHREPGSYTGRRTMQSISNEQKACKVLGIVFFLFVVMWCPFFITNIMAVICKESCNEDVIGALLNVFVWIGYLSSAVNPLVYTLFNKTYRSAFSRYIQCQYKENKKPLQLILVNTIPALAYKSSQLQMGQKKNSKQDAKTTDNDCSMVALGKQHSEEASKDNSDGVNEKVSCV

5-HT2A [4] = target: T2, 5-HT2A; test: IP-One HTRF IP-1 accumulation functional assay, 5-HT2A-expressing HEK293; format: cell-based; set-up: host or cells: HEK293
Description: Methods (5-HT2A and 5-HT2C IP-One Functional Activity Assays): Intracellular accumulation of IP-1 was measured using an IP-One HTRF assay kit (Cat. #62IPAPEJ, Cisbio) at WuXi AppTec Co. Ltd. (Hong Kong) Discovery Biology Unit according to their standard protocols. Briefly, the reference compounds and screening compounds were 3.16-fold serially diluted in 100% DMSO for 10 points using Bravo. 70 nL of compounds were added to the assay plate using Echo555. Added 14 μL/7500 cells/well of 5-HT2A-expressing HEK293 or 5-HT2C-expressing HEK293 to the assay plate and incubate for 60 min at 37° C. Added 3 μL of IP-1 d2 Reagent working solution and 3 μL of IP-1 Tb Cryptate Antibody working solution to all wells. The plates were incubated for 1 hour at room temperature and read for fluorescence at 620 nm and 665 nm on an EnVision Multimode Plate Reader (PerkinElmer). The ratio of the acceptor and donor emission signals (665/620) were calculated for each individual well and substituted into the standard curve to obtain the log concentration of IP level. After converting to the antilog base IP-1, the average background control signal was subtracted from each well and values were normalized to the maximal response of 5-HT at 3 μM (100%). % MAX was calculated by taking the average normalized maximal response for each compound at the highest concentration tested. The data were analyzed using the four-parameter nonlinear regression curve-fitting function in GraphPad Prism 5 (GraphPad Software, San Diego, CA) to generate potency (EC50) values. The represented plots show normalized IP-1 values versus compound concentrations; the corresponding numerical data are parameter estimates for the concentration-response curve using the four-parameter nonlinear regression curve-fitting function in GraphPad Prism 10.

male C57BL/6J mice [5] = test: Mouse head-twitch response (HTR) assay, magnetometer; format: in vivo; conditions: for HTR (head twitch response), in words: i.p., doses up to 30 mpk
[6] = Aqueous solubility by sequential dilution in water, microscopic inspection; conditions: water, thermodynamic from solid
male C57BL/6J mice [7] = test: Motor activity / distance traveled measured in parallel with HTR; format: in vivo, mouse; conditions: i.p.; for motor activity, in words: magnetometer activity
[8] = Photoabsorption 290-700 nm, molar extinction coefficient (photoliability); format: physicochemical; conditions: wavelength of maximal absorption between 290 nm and 700 nm
5-HT2A (h) = target: T3, 5-HT2A (h) (Homo sapiens, UniProt P28223); test: Radioligand binding 5-HT2A (h) (agonist radioligand), [^125I](±)DOI, HEK-293 cells; conditions: 5-HT2A, Hill coefficient
T3 construct: host or cells: HEK-293 cells
T3 sequence (P28223 whole entry, looked up): as above

5-HT2B (h) = target: T4, 5-HT2B (h) (Homo sapiens, UniProt P41595); test: Radioligand binding 5-HT2B (h) (agonist radioligand), [^125I](±)DOI, CHO cells
T4 construct: host or cells: CHO cells
T4 sequence (P41595 whole entry): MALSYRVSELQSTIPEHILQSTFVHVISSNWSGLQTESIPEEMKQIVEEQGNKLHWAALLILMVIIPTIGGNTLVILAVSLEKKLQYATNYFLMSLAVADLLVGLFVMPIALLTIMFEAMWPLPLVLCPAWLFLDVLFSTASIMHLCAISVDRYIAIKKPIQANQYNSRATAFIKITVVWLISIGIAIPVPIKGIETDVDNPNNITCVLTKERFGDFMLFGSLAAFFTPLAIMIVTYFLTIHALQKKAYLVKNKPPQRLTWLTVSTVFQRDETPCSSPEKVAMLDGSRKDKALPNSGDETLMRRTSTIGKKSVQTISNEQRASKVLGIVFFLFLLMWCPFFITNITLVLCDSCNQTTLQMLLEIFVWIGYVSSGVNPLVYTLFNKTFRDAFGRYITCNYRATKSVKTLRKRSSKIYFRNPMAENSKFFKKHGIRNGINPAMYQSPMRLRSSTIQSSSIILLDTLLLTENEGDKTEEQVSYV

5-HT2C (h) = target: T5, 5-HT2C (h) (Homo sapiens, UniProt P28335); test: Radioligand binding 5-HT2C (h) (agonist radioligand), [^125I](±)DOI, HEK-293 cells
T5 construct: host or cells: HEK-293 cells
T5 sequence (P28335 33-458): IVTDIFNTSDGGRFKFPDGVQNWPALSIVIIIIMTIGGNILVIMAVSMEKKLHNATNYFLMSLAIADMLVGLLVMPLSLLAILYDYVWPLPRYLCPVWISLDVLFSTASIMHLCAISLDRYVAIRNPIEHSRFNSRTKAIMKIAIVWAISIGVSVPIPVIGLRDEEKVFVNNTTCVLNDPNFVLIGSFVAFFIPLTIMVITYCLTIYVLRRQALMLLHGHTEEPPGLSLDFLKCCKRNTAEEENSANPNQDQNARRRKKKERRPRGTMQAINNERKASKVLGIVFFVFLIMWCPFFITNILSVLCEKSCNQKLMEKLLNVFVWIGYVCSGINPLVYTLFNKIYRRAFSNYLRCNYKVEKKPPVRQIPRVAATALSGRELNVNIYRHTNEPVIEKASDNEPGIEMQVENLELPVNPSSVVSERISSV

T1 sequence (P41595 whole entry): as the sequence (P41595 whole entry) above

SMILES | EC50 (5-HT2B [1]) | EC50 (5-HT2B [2]) | Emax (5-HT2B [2]) | 5-HT2B receptor activation (5-HT2B [2]) | EC50 (5-HT2A [3]) | Emax (5-HT2A [3]) | EC50 (5-HT2A [4]) | ED50 (male C57BL/6J mice [5]; Mus musculus, ip, non-linear regression) | HTR (head twitch response), in words (male C57BL/6J mice [5]) | solubility [6] | motor activity ID50 (male C57BL/6J mice [7]) | motor activity, in words (male C57BL/6J mice [7]) | MEC [8] | nH (5-HT2A (h)) | IC50 (5-HT2B (h)) | Ki (5-HT2B (h)) | nH (5-HT2B (h); 5-HT2B, Hill coefficient) | Ki (5-HT2C (h)) | nH (5-HT2C (h); 5-HT2C, Hill coefficient)
COc1cc(CCN)c(OC)cc1Br [Compound 2C-B, reference compound] | 232 nM | 9.98 nM | 92.7% | near maximal activation | 0.62 nM | 105% | 20.9 nM | – | – | – | – | – | – | – | – | – | – | – | –
COc1cc(CC(C)C)c(OC)cc1CCN [Compound 2C-iBu, reference compound] | – | 22.3 nM | 89.1% | near maximal activation | 21.9 nM | 92.6% | – | 0.42 mg/kg | produced clear HTR time-course and inverted U-shape dose-response patterns; also recorded: induced HTR activity | 31.2 mM (≈ 7400 µg/mL) | 2 mpk | modest but statistically significant effect on motor suppression at the doses of 3 and 10 mpk | – | – | – | – | – | – | –
COc1cc(CC(C)C)c(CO)cc1CCN [Compound 2CiBu-5HM, [5-(2-Aminoethyl)-2-isobutyl-4-methoxy-phenyl]methanol] | 1120 nM | – | – | – | – | – | 466 nM | – | – | 44.4 mM (≈ 10500 µg/mL) | – | – | 340.7 L/mol/cm | – | – | – | – | – | –
COc1cc(C[C@@H](C)N)c(OC)cc1I [R-DOI, (−)-R-2,5-dimethoxy-4-iodo-amphetamine, reference compound] | – | – | – | – | – | – | – | – | induced HTR that gradually increased over time | – | – | increase in motor activity | – | 0.7 | 2.3 nM | 1.2 nM | 0.7 | 0.4 nM | 1.0
